The target of test [1] is T1, (h)DAT (Homo sapiens, UniProt Q01959).
T1 construct: expressed in transfected cells
Put plainly: block of [3H]dopamine reuptake in HEK-(h)DAT cells. The format is cell-based.

The test system of test [2] is mice. Put plainly: locomotor activity, 8-h time course protocol. The format is in vivo. Conditions: for ED50 / Emax: Mus musculus; for ED50: read-out: Locomotor Activity 8-Hour ED50; for Emax: read-out: Locomotor Activity 8-Hour % Peak Cocaine, percent of cocaine's maximal effect, 30 min period of maximum stimulation; for Locomotor Activity 8-Hour Time, min Period, length: duration of locomotor activity; for Locomotor Activity 8-Hour Time, min Period, max: time period of maximum effect; for locomotor stimulant activity across the 1-h and 8-h protocols, in words: 1-h and 8-h tests compared.

The test system of test [3] is rats. Kind of test: cocaine discrimination (2-lever operant), i.p. administration. Particulars: for responders at 5 mg/kg / responders at 10 mg/kg / responders at 25 mg/kg / responders at 50 mg/kg / ED50 / responders at 100 mg/kg: Rattus norvegicus, ip; for responders at 5 mg/kg / responders at 10 mg/kg / responders at 25 mg/kg / responders at 50 mg/kg / responders at 100 mg/kg: read-out: % cocaine lever responding; for ED50: read-out: Full Generalization ED50.

Test [4] deals with rats. Put plainly: cocaine discrimination time-course study, oral administration. Conditions: for ED50: Rattus norvegicus, po, 0.75 h; for generalization to cocaine: p.o., 50 mg/kg.
The target of test [5] is T1, (h)DAT. Put plainly: competition binding with [125I]RTI-55 at (h)DAT stably expressed in HEK293 cells. Conditions: mean ± standard error of three independent experiments.
The subject of test [6] is mice. Kind of test: locomotor activity, 1-h observation protocol. Type of test: in vivo. Conditions: for Emax / ED50: Mus musculus; for Emax: 0.5 h, read-out: Locomotor Activity 1-Hour % Peak Cocaine; for ED50 / Locomotor Activity 1-Hour ED50: dose to produce 50% of the compound's maximal effect, 1-h.
Setting [7] is: mean ± standard error of three independent experiments, read-out: Uptake, IC50 [3H]DA.
Where [8] appears, read: dose to produce 50% of the compound's maximal effect, 8-h.

SMILES strings stand for the structures. Where two headings read alike, the source gives them in different places. Marks after values point to notes of the source that are not given here.

T1 sequence (Q01959 whole entry): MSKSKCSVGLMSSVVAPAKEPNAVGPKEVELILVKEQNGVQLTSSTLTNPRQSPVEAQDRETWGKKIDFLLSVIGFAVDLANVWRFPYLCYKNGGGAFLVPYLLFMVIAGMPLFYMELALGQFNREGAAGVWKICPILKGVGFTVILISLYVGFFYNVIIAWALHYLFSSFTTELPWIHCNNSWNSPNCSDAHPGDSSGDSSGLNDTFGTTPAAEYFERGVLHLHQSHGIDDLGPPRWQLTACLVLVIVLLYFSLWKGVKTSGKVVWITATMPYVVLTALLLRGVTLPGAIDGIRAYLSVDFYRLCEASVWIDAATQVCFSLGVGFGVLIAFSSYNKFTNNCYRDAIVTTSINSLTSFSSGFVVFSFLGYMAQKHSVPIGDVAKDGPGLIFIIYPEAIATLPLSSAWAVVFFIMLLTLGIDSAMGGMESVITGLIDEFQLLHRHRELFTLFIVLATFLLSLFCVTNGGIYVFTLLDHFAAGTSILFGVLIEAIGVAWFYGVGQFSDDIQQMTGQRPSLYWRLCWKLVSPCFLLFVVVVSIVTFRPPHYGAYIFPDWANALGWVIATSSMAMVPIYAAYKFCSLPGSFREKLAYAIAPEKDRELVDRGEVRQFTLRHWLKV

As a reminder, the ED50 is the dose at which the effect has come halfway, by size or by number of responders. As for `CC(NC(C)(C)C)C(=O)c1cccc(Cl)c1` (racemic) [Compound 2a, (±)-2-tert-butylamino-3′-chloropropiophenone, reference compound], the “times less potent inhibitor of DA uptake than cocaine” value at (h)DAT [1] (relative to cocaine) is given as 3.5 times. Also, in the test with mice [2] (8 h), the ED50 worked out at 6.5 mg/kg. Besides, in the test with mice [2], the Emax was above 84%; the “Locomotor Activity 8-Hour Time, min Period, length” value lay in the range of 130 to 270 min; the “Locomotor Activity 8-Hour Time, min Period, max” value lay within 0 to 30 min. Besides, in the test with rats [3], the responders at 5 mg/kg is 0%, the responders at 10 mg/kg stood at 67% and the responders at 25 mg/kg is 66%. Moreover, the “generalization to the cocaine cue, in words” value in the test on rats [3] (i.p.) is “substituted only partially”. The same compound had a cocaine-appropriate responding in the test on rats [3] (i.p., 10 mg/kg) of 67%. Further, in the test with rats [3] (i.p., dose range given in the value), the “response rate, in words” value was “increased relative to vehicle control following 5-25 mg/kg”. Moreover, the 50% effect level with rats [4] (ED50) was put at a dose of 23.2 mg/kg. The ED50 in the test with rats [4] (read-out: ED50 for drug-appropriate responding) was found to be 23.2 mg/kg. The generalization to cocaine result in the test with rats [4] (45 min) is “full generalization”. The generalization to cocaine entry in the test on rats [4] (90 min) is recorded as “partial generalization”.

One may read the Ki as a measure of affinity in units of concentration, obtained from inhibition or displacement. A lower Ki goes with higher affinity. What is called IC50 is the concentration needed to halve the response being measured. `CC(NC(C)(C)C)C(=O)c1cccc(F)c1` (centres unmarked) [Compound 2c, 2-(tert-Butylamino)-3′-fluoropropiophenone] had a Ki at (h)DAT [5] of 4.51 µM. On (h)DAT [1] (setting [7]), the half-inhibitory concentration (IC50) came to 1.46 µM. In addition, in the test on mice [6], the Emax was determined as 84% and it took a dose of 16.1 mg/kg to reach the 50% effect level (ED50). For the same compound, in the test with mice [2], the “locomotor stimulant activity across the 1-h and 8-h protocols, in words” value is “strong stimulants in both studies”; the Emax amounted to 90%; the “Locomotor Activity 8-Hour Time, min Period, length” value turned out to be 150 min; the “Locomotor Activity 8-Hour Time, min Period, max” value was in the range of 0 to 30 min. The median effective dose (ED50) in the test on mice [2] (setting [8]) came to 16.6 mg/kg. In addition, in the test with rats [3], the responders at 5 mg/kg amounted to 1%, the responders at 10 mg/kg worked out at 0%, the responders at 25 mg/kg worked out at 50% and the responders at 50 mg/kg was 10%. Also, the ED50 in the test on rats [3] came out at 10.8 mg/kg. The 50% effect level in the test with rats [4] (ED50) was put at a dose of 27.1 mg/kg.

With `CC(C(=O)c1cccc(Cl)c1)N(C)C(C)(C)C` (centres unmarked) [Compound 2cc, 2-(N-Methyl-N-tert-butylamino)-3′-chloropropiophenone], at (h)DAT [5], the Ki turned out to be 6.4 µM. In addition, the IC50 at (h)DAT [1] (setting [7]) stood at 2.06 µM. Further, in the test with mice [6], the Emax is 78% and the ED50 turned out to be 14.9 mg/kg. Besides, in the test on mice [2], the “locomotor stimulant activity across the 1-h and 8-h protocols, in words” value is “weak stimulants in both tests”; the Emax turned out to be 67%; the “Locomotor Activity 8-Hour Time, min Period, length” value was 200 to 340 min; the “Locomotor Activity 8-Hour Time, min Period, max” value was in the range of 80 to 110 min. Also, the ED50 in the test on mice [2] (setting [8]) is 11.2 mg/kg. In the test with rats [3], the responders at 5 mg/kg amounted to 0%, the responders at 10 mg/kg amounted to 49% and the responders at 25 mg/kg is 50%.

`Cc1cccc(C(=O)C(C)NC(C)(C)C)c1` (centres unmarked) [Compound 2e, 2-(N-tert-Butylamino)-3′-methylpropiophenone]: in the test with mice [6], the Emax came to 76% and the ED50 was 31 mg/kg.

`CC(NC(C)(C)C)C(=O)c1ccc(Cl)cc1` (centres unmarked) [Compound 2f, 2-(N-tert-Butylamino)-4′-chloropropiophenone] showed a Ki on (h)DAT [5] of 2.19 µM. The IC50 at (h)DAT [1] (setting [7]) is 2.32 µM. Further, the “Locomotor Activity 1-Hour ED50” value with mice [6] is “NE^f”. Further, in the test with mice [2], the “Locomotor Activity 8-Hour Time, min Period, max” value was in the range of 180 to 210 min. Further, in the test with rats [3], the responders at 5 mg/kg is 0%, the responders at 10 mg/kg was 33%, the responders at 25 mg/kg came to 17% and the responders at 50 mg/kg was found to be 0%. Besides, the responders at 100 mg/kg with rats [3] was found to be 34%.

For `Cc1ccc(C(=O)C(C)NC(C)(C)C)cc1` (centres unmarked) [Compound 2h, 2-(N-tert-Butylamino)-4′-methylpropiophenone], in the test on mice [6], the Emax was determined as 65% and the ED50 amounted to 8.77 mg/kg. Also, in the test on mice [2], the “locomotor stimulant activity across the 1-h and 8-h protocols, in words” value is “weak stimulants in both tests”; the Emax stood at 52%; the “Locomotor Activity 8-Hour Time, min Period, length” value is 60 to 140 min; the “Locomotor Activity 8-Hour Time, min Period, max” value fell in the range of 30 to 60 min. Besides, in the test with mice [2] (8 h), the ED50 worked out at 4.4 mg/kg. Also, in the test with rats [3], the responders at 5 mg/kg amounted to 0%, the responders at 10 mg/kg is 0%, the responders at 25 mg/kg is 17% and the responders at 50 mg/kg was 67%. Also, in the test on rats [3], the responders at 100 mg/kg was 10% and the ED50 was 36.7 mg/kg.

With `CC(NC(C)(C)C)C(=O)c1ccc(F)c(F)c1` (centres unmarked) [Compound 2i, 2-tert-Butylamino-3′,4′-difluoropropiophenone], in the test on mice [6], the Emax was 58% and the ED50 amounted to 54.6 mg/kg. Besides, in the test with rats [3], the responders at 10 mg/kg came to 2%, the responders at 25 mg/kg was determined as 17% and the responders at 50 mg/kg is 47%.

As for `CC(NC(C)(C)C)C(=O)c1cc(F)cc(F)c1` (centres unmarked) [Compound 2m, 2-(tert-Butylamino)-3′,5′-difluoropropiophenone], the Ki at (h)DAT [5] came to 5.66 µM. In addition, the IC50 on (h)DAT [1] (setting [7]) was determined as 5.6 µM. In addition, in the test on mice [6], the Emax was determined as 93% and the ED50 is 39.7 mg/kg. Also, in the test with mice [2], the “locomotor stimulant activity across the 1-h and 8-h protocols, in words” value is reported as “strong stimulants in both studies”; the Emax is 95%; the “Locomotor Activity 8-Hour Time, min Period, length” value is recorded as 280 min; the “Locomotor Activity 8-Hour Time, min Period, max” value lay in the range of 0 to 30 min. For the same compound, the ED50 in the test on mice [2] (setting [8]) was found to be 33.7 mg/kg. Moreover, in the test on rats [3], the responders at 10 mg/kg is 17%, the responders at 25 mg/kg worked out at 50%, the responders at 50 mg/kg was determined as 83% and the ED50 amounted to 17.9 mg/kg. Also, the ED50 with rats [4] came out at 43.6 mg/kg.

As for `CC(NC(C)(C)C)C(=O)c1cc(Cl)cc(Cl)c1` (centres unmarked) [Compound 2n, 2-(tert-Butylamino)-3′,5′-dichloropropiophenone], in the test on mice [6], the “Locomotor Activity 1-Hour ED50” value was “NE^f”.

At (h)DAT [5], `CC(C)NC(C)C(=O)c1cccc(Cl)c1` (centres unmarked) [Compound 2w, 2-(N-Isopropylamino)-3′-chloropropiophenone] showed a Ki of 3.98 µM. For the same compound, the IC50 at (h)DAT [1] ([3H]DA, read-out: IC50 for DA uptake inhibition) was 2 µM. Further, at (h)DAT [1] (relative to bupropion), the “times less potent than bupropion as DA uptake inhibitor” value was 2 times. The Emax in the test with mice [6] stood at 84%. Besides, in the test with mice [2], the “locomotor stimulant activity across the 1-h and 8-h protocols, in words” value is listed as “activity similar to cocaine in the 1-h protocol but weakened significantly in the 8-h time-course study”; the Emax came to 65%; the “Locomotor Activity 8-Hour Time, min Period, length” value was 50 to 160 min; the “Locomotor Activity 8-Hour Time, min Period, max” value fell in the range of 20 to 50 min. In the test with mice [2] (8 h), the ED50 is 7.4 mg/kg.

Turning to `COC(=O)[C@H]1[C@@H](OC(=O)c2ccccc2)C[C@@H]2CC[C@H]1N2C` [cocaine, reference compound], in the test on mice [6], the Emax is 100%, the ED50 was in the range of 8.5 to 11 mg/kg and the “Locomotor Activity 1-Hour ED50” value was 8.5-11^e mg/kg. Further, in the test with mice [2], the Emax is 100%; the “Locomotor Activity 8-Hour Time, min Period, length” value is 40 to 100 min; the “Locomotor Activity 8-Hour Time, min Period, max” value fell in the range of 0 to 30 min.

The record behind these values is patent US10919841B2, “Monoamine reuptake inhibitors” (Research Triangle Institute, priority 2009, dated 2021).
